Reference: patent US8357692B2, “Methods of treatment of bone degenerative diseases” (Washington University, priority 2010, dated 2013)
Entries after “also recorded” stand apart in the source; their conditions may differ. Where two headings read alike, the source gives them in different places.

What was measured:
[1] = test system: ovariectomy-induced bone loss; assay: Ovariectomy-induced bone loss in mice, micro-CT of distal femora; format: in vivo
[2] = test system: CD4+ T-cells producing IL-17 (Th17 cells); assay: Flow cytometry of spleen cells for CD4+ T-cells producing IL-17; format: in vivo; conditions: ovx mice treated daily for two weeks
serum CTx = assay: Serum CTx ELISA in ovariectomized mice; format: in vivo; conditions: ovx mice treated daily, two weeks, relative to sham operated mice
bone formation = assay: Bone formation assay (calcein double labeling); format: in vivo; conditions: mice treated daily for 14 days, versus PBS control
Procedure: Bone formation assay (calcein double labeling): Mice were injected with 7.5 mg/kg calcein (Sigma-Aldrich; St. Louis, Mo.). Five days later mice were injected again, and tibias were harvested after an additional 2 days for histologic analysis. Dynamic assessment of trabecular bone formation was determined on non-decalcified sections using BioQuant software (Bioquant; Nashville, Tenn.). This software provided measures of bone surface, percent single-(sLS/BS) and double-labeled (dLS/BS) bone surface, mineralizing surface (MS/BS), mineral apposition rate (MAR), and bone formation rate (BFR/BS). Trabecular bone measurements were taken from a region encompassing a 500 μm-long field, across the width of the bone (located 100 μm below the growth plate). For each animal, 2 serial sections were analyzed and the measurements averaged. Pictures were obtained using an Olympus 1×51 fluorescent microscope fitted with Olympus DP70 camera (Olympus; Center Valley, Pa.).
Since Halofuginone inhibits type I collagen synthesis by fibroblasts and other cells, bone formation rates were tested to determine whether the rates are reduced in mice treated with the chemical. Mice were treated daily with HL or vehicle control for 14 days, while Calcein was injected on day 7 and 12, and Mineral Apposition Rates (MAR) and Bone Formation Rates (BFR) were determined.

Body composition by MRI = format: in vivo, mice; conditions: 12 weeks of treatment, versus PBS
Procedure: MRI: Measurements of body composition were performed using the magnetic resonance imaging facility located at the Animal Model Research Core at Washington University (CNRU grant NIB P30 DK56341).
IL-17A inhibits adipocyte differentiation from human mesenchymal stem cells (Shin et al., Biochem. Pharmacol., 77(12), 1835-1844, 2009). IL17R−/− mice are heavier and have higher leptin levels, which is a marker of adopocyte mass (Galic et al., Mol. Cell Endocrinol., 316(2), 129-139, 2010; Goswami et al., Eur J Immunol, 39(10), 2831-2839, 2009). Leptin can stimulate IL-17 production (Liu et al., Br. J. Ophthalmol., 92(4), 557-561, 2008), and blood IL-17 levels are increased in obese women (Sumarac-Dumanovic et al., Int. J. Obes. (Lond), 33(1), 151-156, 2009). […] Eight week old mice (n=6 mice per group) were treated with Halofuginone or PBS for 12 weeks, after which body content was measured using MRI.

[3] = test system: IL-17 production and TH17 cell differentiation; conditions: cited from earlier work
collagen α1(I) = conditions: cited from earlier work
fibrosis accumulation = conditions: rat urethral stricture, cirrhosis, pulmonary fibrosis models; cited from earlier work
[4] = healthy male volunteers, cited from earlier work
P. falciparum FCR-3 = conditions: cited from earlier work; for antimalarial activity and selectivity in words: against P. falciparum in vitro
FM3A mouse mammary cells = conditions: cited from earlier work
[5] = test system: coculture of bone marrow macrophages (BMMs) with osteoblasts; assay: Osteoclast formation in coculture of bone marrow macrophages with osteoblasts; format: cell-based, mice; conditions: BMMs with primary osteoblasts, Vitamin D, varying concentrations
Procedure: Calvaria osteoblast isolation and culture: Whole calvaria were extracted from 3-4 day old pups and cleaned of soft and periostial tissue. Osteoblasts were liberated by 3×20 minute collagenase treatment at 37 degrees, shaking. Osteoblasts were transduced with appropriate virally expressed proteins when 50% confluent, selected with the appropriate antibiotic for 4 days, then plated for experiments. For cocultures, BMMs were cultured for 4 days prior to being lifted and then cultured with osteoblasts in α-MEM media containing pen/strep, 10% FBS and 10 nM VitD3, plus IL-17 or other cytokines where indicated.
To test whether IL-17 signaling is important in the pathogenesis of osteoporosis, the inventors mimicked the most common human form of osteoporosis, that of estrogen deficiency, by removing ovaries (ovx) in mice. […] Four weeks later, Micro-CT, a sensitive and specific measure of bone volume, was used to assess trabecular Bone Volume per Total Volume measured in the distal femora. […] Ovariectomized mice (n=5-7 mice per group) were treated with IL-17 blocking antibody or isotype control for two and four weeks and distal femora were analyzed by micro-CT.
To test the function of IL-17 signaling in the osteoblast, the inventors first determined the IL-17 receptor is expressed in osteoblasts, and its expression is unaffected by TNFα or IL-17 stimulation. […]

RANKL = assay: RT-PCR for RANKL in primary osteoblasts; format: cell-based, mice; conditions: 24 hours
Procedure: RT-PCR: RNA was isolated using RNeasy kits (Qiagen); RLT lysis buffer was supplemented with β-mercaptoethanol (1%). Purified RNA was treated with DNase I (Invitrogen; Carlsbad, Calif.) prior to reverse transcription (RT). RT was performed using SuperScript III (Invitrogen). A negative control using RNA not subjected to reverse transcription was included in each assay. Quantitative PCR (qPCR) was performed using Applied Biosystems's (Foster City, Calif.) Power SYBR green master mix and gene specific primers. The qPCR reaction was run on Applied Biosystem's ABI Prism 7000. Transcript levels were normalized to cyclophilin.
To test the function of IL-17 signaling in the osteoblast, the inventors first determined the IL-17 receptor is expressed in osteoblasts, and its expression is unaffected by TNFα or IL-17 stimulation. Primary osteoblasts were stimulated with vehicle control, IL-17 (10 ng/ml), TNF (5 ng/ml), or a combination of the two for 24 hours, and RT-PCR for the IL-17 receptor and actin was performed (FIG. 6). Next the inventors cultured BMMs in combination with primary osteoblasts, Vitamin D, and varying IL-17 concentrations. Osteoblasts were lifted, then osteoclasts were fixed and TRAP stained. […] IL-17 receptor WT and KO osteoblasts were cultured with IL-17 (10 ng/ml) and BrdU for 24 hours, after which BrdU incorporation was measured by absorptiometry.

osteoblasts = assay: BrdU incorporation in osteoblasts; format: cell-based, mice; conditions: 10 ng/ml, 24 hours, IL-17 receptor WT and KO osteoblasts
Procedure: To test the function of IL-17 signaling in the osteoblast, the inventors first determined the IL-17 receptor is expressed in osteoblasts, and its expression is unaffected by TNFα or IL-17 stimulation. Primary osteoblasts were stimulated with vehicle control, IL-17 (10 ng/ml), TNF (5 ng/ml), or a combination of the two for 24 hours, and RT-PCR for the IL-17 receptor and actin was performed (FIG. 6). Next the inventors cultured BMMs in combination with primary osteoblasts, Vitamin D, and varying IL-17 concentrations. Osteoblasts were lifted, then osteoclasts were fixed and TRAP stained. […] Primary osteoblasts were stimulated with IL-17 or vehicle control for 24 hours, and RT-PCR was performed using primers for RANKL or actin. […] IL-17 receptor WT and KO osteoblasts were cultured with IL-17 (10 ng/ml) and BrdU for 24 hours, after which BrdU incorporation was measured by absorptiometry.

[6] = Table 1, against P. falciparum FCR-3, in vitro, read-out: EC50 (M) antimalarial activity
[7] = read-out: EC50 (M) cytotoxicity, Table 1, against FM3A mouse mammary cells
[8] = Table 2, against P. falciparum FCR-3, in vitro, read-out: EC50 (M) antimalarial activity
[9] = read-out: EC50 (M) cytotoxicity, Table 2, against FM3A mouse mammary cells

With O=C(C[C@@H]1NCCC[C@H]1O)Cn1cnc2cc(Br)c(Cl)cc2c1=O [Halofuginone, 7-Bromo-6-chloro-3-[3-[(2S,3R)-3-hydroxy-2-piperidinyl]-2-oxopropyl]-4-quinazolinone] the “Connectivity Density” value ([1]; four weeks after ovariectomy, daily injection) was “completely protected”, the ovariectomy-induced bone loss ([1]; four weeks post-ovx) was “lost significantly less bone than PBS injected mice; also recorded: protects from ovariectomy-induced bone loss; also recorded: lose significantly less bone” and the “BV/TV, BV, connectivity density, trabecular thickness, and trabecular number” value ([1]; ovx mice, daily treatment, four weeks, relative to sham) was “but not in Halofuginone treated ovx mice relative to sham”. The “Bone volume per total volume (BV/TV)” value ([1]; ovx mice, daily treatment, two weeks) was “significantly lower in vehicle treated ovx mice compared with either sham or Halofuginone treated ovx mice”, the ovariectomy-induced bone loss ([1]; two weeks post-ovx) was “lost significantly less bone than PBS treated mice; also recorded: protects from ovariectomy-induced bone loss; also recorded: lose significantly less bone” and the “percentage of CD4+ T-cells producing IL-17” value [2] was “reduces Th17 cells; also recorded: significantly reduced”. For the same molecule, the “serum CTx” value (serum CTx) was “reduces serum CTx; also recorded: blunted, non-statistically significant, increase”, the bone formation rates (bone formation) was “does not affect bone formation; also recorded: equivalent bone formation rates” and the percent body fat (Body composition by MRI) was “reduced percent body fat”. For the same molecule, the percent lean mass (Body composition by MRI) was “small but statistically significant increase”, the total fat mass (Body composition by MRI) was “significantly less total fat mass” and the TGFβ inhibition ([3]; at concentrations that inhibit IL-17 production) was “no TGFβ inhibition is seen”. For the same molecule, the “IL-17 production and TH17 cell differentiation” value [3] was “inhibits IL-17 production and TH17 cell differentiation”, the “Collagen type II or III” value (collagen α1(I)) was “not inhibited” and the “collagen α1(I) mRNA and protein levels” value (collagen α1(I); variety of cells) was “inhibits collagen α1(I) mRNA and protein levels”. For the same molecule, the fibrosis accumulation (fibrosis accumulation) was “inhibit fibrosis accumulation”, the maximal tolerated dose ([4]; daily oral dose) was 1.5 mg and the tolerability ([4]; oral, 1.5 to 2.5 mg) was “moderately tolerated”. For the same molecule, the “tolerability of single oral doses” value ([4]; single oral doses of 0.07 and 0.5 mg) was “safe and well tolerated”.

In the case of C[C@@H]1CC[C@H]2[C@@H](C)C(=O)O[C@@H]3O[C@@]4(C)CC[C@@H]1[C@]32OO4 [artemisinin], the EC50 (P. falciparum FCR-3; [6]) is listed as 1e-08 M and the EC50 (FM3A mouse mammary cells) is listed as 1e-05 M.

In the case of CCN(CC)CCCC(C)Nc1ccnc2cc(Cl)ccc12 (stereo not drawn) [chloroquine], the EC50 (P. falciparum FCR-3; [6]) is listed as 1.8e-08 M and the EC50 (FM3A mouse mammary cells; [7]) is listed as 3.2e-05 M.

For O=C(C[C@H]1NCCC[C@@H]1O)Cn1cnc2ccccc2c1=O [compound 1, febrifugine], the EC50 (P. falciparum FCR-3; [6]) is listed as 7e-10 M and the EC50 (FM3A mouse mammary cells; [7]) is listed as 1.7e-07 M.

In the case of O=c1c2ccccc2ncn1CC1(O)C[C@@H]2NCCC[C@@H]2O1 (stereo partly drawn) [compound 2, isofebrifugine], the EC50 (P. falciparum FCR-3; [6]) is given as 3.4e-09 M and the EC50 (FM3A mouse mammary cells) is given as 1.8e-07 M.

In the case of O=C(CC1NCCCC1=O)Cn1cnc2ccccc2c1=O (stereo not drawn) [compound 7], the EC50 (P. falciparum FCR-3; [6]) is listed as 2e-08 M, the “antimalarial activity and selectivity in words” value (P. falciparum FCR-3) is listed as “potential antimalarial activity with high selectivity” and the EC50 (FM3A mouse mammary cells; [7]) is listed as 1e-05 M.

In the case of O=c1c2ccccc2ncn1CC(O)C[C@H]1NCCC[C@@H]1O (stereo partly drawn) [compound 8], the EC50 (P. falciparum FCR-3; P. falciparum in vitro, read-out: EC50, in vitro antimalarial activity) is given as 2e-08 M, the “antimalarial activity and selectivity in words” value (P. falciparum FCR-3) is given as “strongly active and selective” and the EC50 (FM3A mouse mammary cells; [7]) is given as 1.5e-05 M.

In the case of O=C(C[C@H]1NCCC[C@@H]1O)Cn1cnccc1=O [compound 12], the EC50 (P. falciparum FCR-3; [6]) is given as 6e-07 M and the EC50 (FM3A mouse mammary cells; [7]) is given as greater than 1.9e-05 M.

For O=c1ccncn1CC1(O)C[C@@H]2NCCC[C@@H]2O1 (stereo partly drawn) [compound 13], the EC50 (P. falciparum FCR-3; [6]) is listed as 4e-08 M and the EC50 (FM3A mouse mammary cells) is listed as 7e-06 M.

In the case of O=C(C[C@H]1NCCC[C@@H]1O)Cn1ccc2ccccc2c1=O [compound 14], the EC50 (P. falciparum FCR-3; [6]) is given as 5e-07 M and the EC50 (FM3A mouse mammary cells; [7]) is given as greater than 1.6e-05 M.

For O=c1c2ccccc2ccn1CC1(O)C[C@@H]2NCCC[C@@H]2O1 (stereo partly drawn) [compound 15], the EC50 (P. falciparum FCR-3; [6]) is given as 2.1e-06 M and the EC50 (FM3A mouse mammary cells) is given as greater than 6.3e-06 M.

In the case of CC1(C)[C@@H](N2CNc3ccccc3C2=O)C(O)=C[C@@H]2[C@@H](O)CCCN21 [compound 38], the EC50 (P. falciparum FCR-3; [8]) is listed as 4.2e-07 M and the EC50 (FM3A mouse mammary cells; [9]) is listed as greater than 1.6e-05 M.

For CNc1ccccc1C(=O)N[C@H]1C(O)=C[C@@H]2[C@@H](O)CCCN2C1(C)C [compound 39], the EC50 (P. falciparum FCR-3; [8]) is given as 6e-07 M and the EC50 (FM3A mouse mammary cells; [9]) is given as greater than 1.7e-05 M.

For “IL-17: interleukin-17, cytokine promoting osteoclast formation, added to cultures”, the osteoclast formation [5] was “potently induced osteoclast formation”, the “RANKL mRNA expression in the osteoblast” value (RANKL) was “induced by IL-17” and the “osteoblast proliferation (BrdU incorporation)” value (osteoblasts) was “does not affect osteoblast proliferation”.
